In US7728146B2, “Enzyme inhibitors” (Probiodrug AG, priority 2006, dated 2010):
Like-named read-outs stand apart in the source and are kept apart here.

Target: DP IV (Homo sapiens, UniProt P27487)
Experiment: DP IV inhibition IC50, parallel-synthesis compounds tested directly following synthesis (without purification)
Assay type: biochemical
Design: IC50 DP4; other: tested directly following parallel synthesis, without purification; compounds of formula (Ib) from parallel synthesis, tested directly following synthesis
Outline: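 IC50 came from a 4-parameter fit of residual activity (linear 405 nm slopes for pNA release over ~18 min, relative to solvent-only wells). Gly-Pro-pNA was the substrate, cleaved by porcine kidney or recombinant human DP IV at room temperature in HEPES with 5% DMSO; duplicate 1:2 series started at 100 μM final.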

[1] = DP IV inhibition, compounds of formula (Ib) from parallel synthesis, tested directly following synthesis (without purification), read-out: IC50
[2] = tested directly following parallel synthesis, without purification, read-out: IC50 DP4

Row | Structure (SMILES) | IC50 [1] [µM] | IC50 [2] [µM]
1 | NCc1c(-c2ccc(Cl)cc2Cl)ncn1Cc1cc(F)cc(C(F)(F)F)c1 [3b, C-[5-(2,4-Dichloro-phenyl)-3-(3-fluoro-5-trifluoromethyl-benzyl)-3H-imidazol-4-yl]-methylamine] | 2.8 | 
2 | CCn1cnc(-c2ccc(Cl)cc2Cl)c1CN [Example 59a, C-[5-(2,4-Dichloro-phenyl)-3-eth-yl-3H-imid-azol-4-yl]-methyl-amine] |  | 25.3
3 | CC(C)CCn1cnc(-c2ccc(Cl)cc2Cl)c1C(C)N (stereo not shown) [44b, 1-[5-(2,4-Dichloro-phenyl)-3-(3-methyl-butyl)-3H-imidazol-4-yl]-ethylamine] | 40.6 | 
4 | COc1cccc(Cn2cnc(-c3ccc(F)cc3F)c2CN)c1 [Example 77a, C-[5-(2,4-Difluoro-phenyl)-3-(3-methoxy-benzyl)-3H-imid-azol-4-yl]-methyl-amine] |  | 24.4
5 | NCc1c(-c2ccc(Cl)cc2Cl)ncn1Cc1ccc(Cl)cc1Cl [Example 57a, C-[3-(2,4-Dichloro-benzyl)-5-(2,4-dichloro-phenyl)-3H-imid-azol-4-yl]-methyl-amine] |  | 9.1
6 | NCc1c(-c2ccc(F)cc2F)ncn1Cc1ccccn1 [Example 88a, C-[5-(2,4-Difluoro-phenyl)-3-pyri-din-2-yl-methyl-3H-imid-azol-4-yl]-methyl-amine] |  | 29.8
7 | NCc1c(-c2ccc(F)cc2F)ncn1Cc1cccc(F)c1 [Example 78a, C-[5-(2,4-Difluoro-phenyl)-3-(3-fluoro-benzyl)-3H-imid-azol-4-yl]-methyl-amine] |  | 46
8 | NCc1c(-c2ccc(F)cc2F)ncn1Cc1ccc(F)cc1Cl [Example 87a, C-[3-(2-Chloro-4-fluoro-benzyl)-5-(2,4-difluoro-phenyl)-3H-imid-azol-4-yl]-methyl-amine] |  | 25.3
9 | NCc1c(-c2ccc(Cl)cc2Cl)ncn1Cc1ccc(F)cc1F [Example 39a, C-[5-(2,4-Dichloro-phenyl)-3-(2,4-difluoro-benzyl)-3H-imid-azol-4-yl]-methyl-amine] |  | 1
10 | COc1cccc(Cn2cnc(-c3ccc(Cl)cc3Cl)c2C(C)N)c1 (stereo not shown) [76b, 1-[5-(2,4-Dichloro-phenyl)-3-(3-methoxy-benzyl)-3H-imidazol-4-yl]-ethylamine] | 10 | 
11 | NCc1c(-c2ccc(F)cc2Cl)ncn1Cc1ccc2c(c1)OCO2 [Example 16a, C-[3-Ben-zo[1,3]di-oxol-5-yl-methyl-5-(2-chlo-ro-4-fluoro-phenyl)-3H-imid-azol-4-yl]-methyl-amine] |  | 28
12 | NCc1c(-c2ccc(F)cc2F)ncn1Cc1cccnc1 [Example 89a, C-[5-(2,4-Difluoro-phenyl)-3-pyri-din-3-yl-methyl-3H-imid-azol-4-yl]-methyl-amine] |  | 22.6
13 | COc1cccc(Cn2cnc(-c3ccc(Cl)cc3Cl)c2CN)c1 [Example 41a, C-[5-(2,4-Dichloro-phenyl)-3-(3-methoxy-benzyl)-3H-imid-azol-4-yl]-methyl-amine] |  | 0.1
14 | NCCc1c(-c2ccc(Cl)cc2Cl)ncn1CCNc1ccc([N+](=O)[O-])cn1 [79b, {2-[5-(2-Amino-ethyl)-4-(2,4-dichloro-phenyl)-imidazol-1-yl]-ethyl}-(5-nitro-pyridin-2-yl)-amine] | 16.3 | 
15 | CC(O)Cn1cnc(-c2ccc(Cl)cc2Cl)c1CN (stereo not shown) [72b, 1-[5-Aminomethyl-4-(2,4-dichloro-phenyl)-imidazol-1-yl]-propan-2-ol] | 20.8 | 
16 | CC(N)c1c(-c2ccc(Cl)cc2Cl)ncn1CCCCCCO (stereo not shown) [34b, 6-[5-(1-Amino-ethyl)-4-(2,4-dichloro-phenyl)-imidazol-1-yl]-hexan-1-ol] | 38.8 | 
17 | NCc1c(-c2ccc(F)cc2F)ncn1Cc1ccccc1 [Example 80a, C-[3-Benzyl-5-(2,4-di-fluoro-phenyl)-3H-imid-azol-4-yl]-methyl-amine] |  | 19.9
18 | CCOc1ccccc1Cn1cnc(-c2ccc(F)cc2F)c1CN [Example 82a, C-[5-(2,4-Difluoro-phenyl)-3-(2-ethoxy-benzyl)-3H-imid-azol-4-yl]-methyl-amine] |  | 14.5
19 | NCCCc1c(-c2ccc(Cl)cc2Cl)ncn1Cc1cc(Br)ccc1F [30b, 3-[3-(5-Bromo-2-fluoro-benzyl)-5-(2,4-dichloro-phenyl)-3H-imidazol-4-yl]-propylamine] | 17.2 | 
20 | CCCCCCn1cnc(-c2ccc(Cl)cc2Cl)c1C(C)N (stereo not shown) [61b, 1-[5-(2,4-Dichloro-phenyl)-3-hexyl-3H-imidazol-4-yl]-ethylamine] | 40.6 | 
21 | CC(C)(C)Cn1cnc(-c2ccc(F)cc2Cl)c1CN [Example 21a, C-[5-(2-Chloro-4-fluoro-phenyl)-3-(2,2-di-methyl-propyl)-3H-imid-azol-4-yl]-methyl-amine] |  | 35.2
22 | NCc1c(-c2ccc(F)cc2Cl)ncn1Cc1cccs1 [Example 1a, C-[5-(2-Chloro-4-fluoro-phenyl)-3-thio-phen-2-yl-methyl-3H-imid-azol-4-yl]-methyl-amine] |  | 11.8
23 | Cc1cc(Cn2cnc(-c3ccc(Cl)cc3Cl)c2CN)no1 [13b, C-[5-(2,4-Dichloro-phenyl)-3-(5-methyl-isoxazol-3-ylmethyl)-3H-imidazol-4-yl]-methylamine] | 20.8 | 
24 | NCc1c(-c2ccc(F)cc2Cl)ncn1Cc1ccc(F)c(F)c1 [Example 17a, C-[5-(2-Chloro-4-fluoro-phenyl)-3-(3,4-difluoro-benzyl)-3H-imid-azol-4-yl]-methyl-amine] |  | 19
25 | NCc1c(-c2ccc(Cl)cc2Cl)ncn1Cc1cccc(C(F)(F)F)c1F [50b, C-[5-(2,4-Dichloro-phenyl)-3-(2-fluoro-3-trifluoromethyl-benzyl)-3H-imidazol-4-yl]-methylamine] | 15.4 | 
26 | NCc1c(-c2ccc(Cl)cc2Cl)ncn1CCCNC1CCCCC1 [19b, {3-[5-Aminomethyl-4-(2,4-dichloro-phenyl)-imidazol-1-yl]-propyl}-cyclohexyl-amine] | 45.1 | 
27 | CCCCCn1cnc(-c2ccc(Cl)cc2Cl)c1C(C)N (stereo not shown) [115b, 1-[5-(2,4-Dichloro-phenyl)-3-pentyl-3H-imidazol-4-yl]-ethylamine] | 29.8 | 
28 | CC(C)CCCCCCn1cnc(-c2ccc(Cl)cc2Cl)c1CN [99b, C-[5-(2,4-Dichloro-phenyl)-3-(7-methyl-octyl)-3H-imidazol-4-yl]-methylamine] | 4.6 | 
29 | NCc1c(-c2ccc(F)cc2Cl)ncn1Cc1ccccc1OC(F)(F)F [Example 23a, C-[5-(2-Chloro-4-fluoro-phenyl)-3-(2-tri-fluoromethoxy-benzyl)-3H-imid-azl-4-yl]-methyl-amine] |  | 5.5

Next, values leading:

Row | IC50 [1] [µM] | IC50 [2] [µM] | Structure (SMILES)
30 |  | 1.9 | NCc1c(-c2ccc(Cl)cc2Cl)ncn1Cc1c(F)cccc1Cl [Example 45a, C-[3-(2-Chloro-6-fluoro-benzyl)-5-(2,4-dichloro-phenyl)-3H-imid-azol-4-yl]-methyl-amine]
31 | 18.1 |  | NCc1c(-c2ccc(Cl)cc2Cl)ncn1CCC(c1ccccc1)c1ccccc1 [53b, C-[5-(2,4-Dichloro-phenyl)-3-(3,3-diphenyl-propyl)-3H-imidazol-4-yl]-methylamine]
32 | 7.3 |  | NCc1c(-c2ccc(Cl)cc2Cl)ncn1CCCCc1ccccc1 [42b, C-[5-(2,4-Dichloro-phenyl)-3-(4-phenyl-butyl)-3H-imidazol-4-yl]-methylamine]
33 | 34.3 |  | NCc1c(-c2ccc(Cl)cc2Cl)ncn1Cc1cc(Br)ccc1F [124b, C-[3-(5-Bromo-2-fluoro-benzyl)-5-(2,4-dichloro-phenyl)-3H-imidazol-4-yl]-methylamine]
34 |  | 0.1 | NCc1c(-c2ccc(Cl)cc2Cl)ncn1Cc1ccc(F)c(F)c1 [Example 49a, C-[5-(2,4-Dichloro-phenyl)-3-(3,4-difluoro-benzyl)-3H-imid-azol-4-yl]-methyl-amine]
35 | 19 |  | CC(N)c1c(-c2ccc(Cl)cc2Cl)ncn1CCc1ccccc1Cl (stereo not shown) [63b, 1-[3-[2-(2-Chloro-phenyl)-ethyl]-5-(2,4-dichloro-phenyl)-3H-imidazol-4-yl]-ethylamine]
36 |  | 30.7 | NCc1c(-c2ccc(Cl)cc2Cl)ncn1Cc1cc(Br)ccc1F [Example 44a, C-[3-(5-Bromo-2-fluoro-benzyl)-5-(2,4-dichloro-phenyl)-3H-imid-azol-4-yl]-methyl-amine]
37 |  | 4.6 | NCc1c(-c2ccc(Cl)cc2Cl)ncn1Cc1c(F)cccc1F [Example 37a, C-[5-(2,4-Dichloro-phenyl)-3-(2,6-difluoro-benzyl)-3H-imid-azol-4-yl]-methyl-amine]
38 | 2.8 |  | NCc1c(-c2ccc(Cl)cc2Cl)ncn1Cc1cc(F)ccc1F [119b, C-[5-(2,4-Dichloro-phenyl)-3-(2,5-difluoro-benzyl)-3H-imidazol-4-yl]-methylamine]
39 | 1.9 |  | NCc1c(-c2ccc(Cl)cc2Cl)ncn1Cc1c(F)cccc1Cl [123b, C-[3-(2-Chloro-6-fluoro-benzyl)-5-(2,4-dichloro-phenyl)-3H-imidazol-4-yl]-methylamine]
40 | 28 |  | CC(N)c1c(-c2ccc(Cl)cc2Cl)ncn1CCCCc1ccccc1 (stereo not shown) [106b, 1-[5-(2,4-Dichloro-phenyl)-3-(4-phenyl-butyl)-3H-imidazol-4-yl]-ethylamine]
41 | 21.7 |  | NCc1c(-c2ccc(Cl)cc2Cl)ncn1CCc1ccc(O)cc1 [113b, 4-{2-[5-Aminomethyl-4-(2,4-dichloro-phenyl)-imidazol-1-yl]-ethyl}-phenol]
42 |  | 1 | NCc1c(-c2ccc(Cl)cc2Cl)ncn1Cc1cccc(C(F)(F)F)c1 [Example 38a, C-[5-(2,4-Dichloro-phenyl)-3-(3-tri-fluoromethyl-benzyl)-3H-imid-azol-4-yl]-methyl-amine]
43 | 12.7 |  | NCc1c(-c2ccc(Cl)cc2Cl)ncn1CCCc1ccccc1 [91b, C-[5-(2,4-Dichloro-phenyl)-3-(3-phenyl-propyl)-3H-imidazol-4-yl]-methylamine]
